Test results taken from patent US8444858B2, “Control of development of biofilms in industrial process water” (A.Y. Laboratories Ltd., priority 2001, dated 2013).
Read-outs that look alike come from different tables or passages of the source. Marks after values point to notes of the source that are not given here.

Columns and labels:
H2O2-degrading enzymes = tested on: H2O2-degrading enzymes
Protocol: (§1) The reaction pH was Maintained at 9.8-10.0. The Production process was controlled to ensure synchronous metering of the two chemicals, continuous mixing at the predetermined molar ratio and reproducible production of a stable biofilm inhibiting substance stock solution for the duration of the trial and longer. […] After 850 minutes the dosing rate was reduced to 85 g/ton expressed as total Cl2 by feeding the biofilm inhibiting substance semi-continuously. Various parameters were monitored during start-up of the trial: Residual biofilm inhibiting substance was measured (using a Hach pocket colorimeter, total Cl2, based on the DPD method adapted from Standard Methods for Examination of Waste and Waste Water). Residual hydrogen peroxide was measured using either LASA 20 with the LCW 085 method, based on the method of Jander/Blasius, Lehrbuch der Analytischen and Praparative Anorganischen Chemie, as described in the Handbook of Photometrical Operation Analysis by Dr. Lange for the LASA 20, October 1997 (in cases of high concentration), or Merck Test Strips (0.5-25 ppm). When necessary, samples were diluted with DI water.
(§2) The activity of H2O2-degrading enzymes in the process water was measured according to the following procedure: a commercial solution of H2O2 was diluted with DI water to a final concentration of 100 g/l water (10%). One ml of the diluted H2O2 solution was added to 9 ml of a sample taken from the treated de-inking process water to form a final feed rate of 10 g/l H2O2. The combined sample was incubated at room temperature for 15 minutes, at which time residual H2O2 was measured. Hydrogen peroxide diluted in DI water served as a control. […] Adenosine triphosphate (ATP) measurements in Table 6 are based on the following process: during the change from ATP to Adenosine monophosphate (AMP) in the presence of luciferin and luciferase, a defined quantity of light is emitted per ATP molecule. This emitted light is measured by a photometer. The results are given in relative terms and are thus relative and not absolute (RLU=relative light unit). The values can be correlated with microbial activity in the sense that for high viable counts, a high ATP measurement is obtained, and vice versa.

[1] = tested on: planktonic microorganisms
Protocol: as §1, §2

biofilm = assay: Pilot plant wastewater pipes, difference in Hazen-Williams coefficient treated vs control pipe; conditions: for HW Diff. treated pipe - Control: single 3 h treatment on day 1 at 10 ppm as total chlorine
Protocol: Treated wastewater was pumped through several pipes of 10 m length and 4 inches inner diameter in a pilot plant. […] Pressure drop through each pipe was monitored on-line, and average HW coefficients were calculated.
The biofilm inhibiting substance in this example was produced as follows, using a small feeding system was built specifically for this trial. […] The concentration of the biofilm inhibiting substance pre-injection solution was ˜3600 ppm and the pH was 9.2-9.6. […]

[2] = tested on: mixed culture of slime-forming-bacteria which had been isolated from a paper machine; assay: Formation of biofilm on stainless steel coupons in a model system (viable counts in medium and on coupons); assay type: cell-based
Protocol: Formation of biofilm on stainless steel coupons in the presence or absence of an oxidizing biocide or a biofilm inhibiting substance was evaluated in the laboratory. The test system consisted of (a) three closed flasks each containing 20 L nutrient-rich medium (diluted three-fold from its recommended use concentration), (b) three closed cells containing stainless steel coupons hanging freely, and (c) three identical circulation pumps, each pump connected via plastic pipes to one of the flasks and to one of the cells. The system was placed in a thermostatic room at 35° C.
An innoculum containing a mixed culture of slime-forming-bacteria which had been isolated from a paper machine was added to each of the flasks. An oxidizer containing a 5 ppm mixture (expressed as total Cl2) of bromochlorodimethylhydantoin (an oxidizing biocide which is a source of HOBr and HOCl) (hereinafter “mixed halogens”) was added to the first flask once a day for the duration of the trial (4 days). […] The third flask served as a control for the two flasks treated with the oxidizing biocide or biofilm inhibiting substances. […] A diluted solution of sodium hypochlorite in deionized (DI) water (˜8000 ppm as total chlorine) was fed with one pump; a diluted solution of ammonium bromide (12500 ppm) was fed with the second pump. The two diluted solutions were synchronously mixed in a short glass pipe to form a pre-injection solution of biofilm inhibiting substance, using a pH meter to control and check the stability of the biofilm inhibiting substance formed. The biofilm inhibiting substance was fed to the test system immediately as it was produced.
On days 2 and 4, each closed cell was opened and 2 coupons were aseptically removed from each cell. At the same time samples of the circulating medium were taken as well. Sampling was conducted after feeding the daily slug dose of biocide.
Each sample of medium was serially 10-fold diluted in sterile saline solution and plated in molten agar. Each coupon was thoroughly rinsed to remove any adhered particles, aseptically scraped, and the material removed by scraping was quantitatively dispersed in saline solution, vortexed, serially 10-fold diluted and plated in molten agar. Viable counts of microorganisms were taken after 48 h of incubation at 35° C. Viable counts of cells in the medium are presented as colony forming units (cfu) per ml; viable counts on the coupon surfaces are presented as cfu/cm^2.

[3] = time 100 min, continuous feed 170 g/ton as total Cl2
[4] = time 240 min, continuous feed 170 g/ton as total Cl2
[5] = time 850 min, continuous feed 170 g/ton as total Cl2
[6] = time 1500 min, semi-continuous feed 85 g/ton as total Cl2 since 850 min

bromide activated chloramine [Fuzzicide BAC]
Reduction in Catalase Activity, as % of initial H2O2 concentration (H2O2-degrading enzymes; time 0 min (start of dosing, baseline), 10 g/l H2O2 added to sample, 15 min): 37.6% | Reduction in Catalase Activity, as % of initial H2O2 concentration (H2O2-degrading enzymes; [3]): 17.8% | Reduction in Catalase Activity, as % of initial H2O2 concentration (H2O2-degrading enzymes; [4]): 54.7% | Reduction in Catalase Activity, as % of initial H2O2 concentration (H2O2-degrading enzymes; [5]): 92% | Reduction in Catalase Activity, as % of initial H2O2 concentration (H2O2-degrading enzymes; [6]): 135.1% | ATP (RLU) ([1]; time 0 min (start of dosing, baseline)): 132276 RLU | ATP (RLU) [1, 3]: 6340 RLU | ATP (RLU) [1, 4]: 2861 RLU | ATP (RLU) [1, 5]: 535 RLU | ATP (RLU) [1, 6]: 3568 RLU | HW Diff. treated pipe - Control (biofilm; day 1): 14.3 | HW Difference, Fuzzicide BAC - Control (biofilm; day 1 of trial (treatment day), 10 ppm as total chlorine for 3 h three times a week): 10.12 | HW Diff. treated pipe - Control (biofilm; day 2): 13.7 | HW Difference, Fuzzicide BAC - Control (biofilm; day 2 of trial, 10 ppm as total chlorine for 3 h three times a week): 11.25 | HW Diff. treated pipe - Control (biofilm; day 3): 12.8 | HW Difference, Fuzzicide BAC - Control (biofilm; day 3 of trial, 10 ppm as total chlorine for 3 h three times a week): 11.62 | HW Diff. treated pipe - Control (biofilm; day 4): 16.5 | HW Difference, Fuzzicide BAC - Control (biofilm; day 4 of trial, 10 ppm as total chlorine for 3 h three times a week): 13.04 | HW Diff. treated pipe - Control (biofilm; day 5): 16.0 | HW Difference, Fuzzicide BAC - Control (biofilm; day 5 of trial (treatment day), 10 ppm as total chlorine for 3 h three times a week): 12.35 | HW Diff. treated pipe - Control (biofilm; day 6): 16.55 | HW Difference, Fuzzicide BAC - Control (biofilm; day 6 of trial, 10 ppm as total chlorine for 3 h three times a week): 13.76 | HW Diff. treated pipe - Control (biofilm; day 7): 15.8 | HW Difference, Fuzzicide BAC - Control (biofilm; day 7 of trial, 10 ppm as total chlorine for 3 h three times a week): 15.13 | HW Diff. treated pipe - Control (biofilm; day 8): 14.3 | HW Diff. treated pipe - Control (biofilm; day 9): 16.9 | HW Diff. treated pipe - Control (biofilm; day 10): 15.3 | HW Diff. treated pipe - Control (biofilm; day 11): 16.0 | HW Diff. treated pipe - Control (biofilm; day 12): 18.1 | HW Diff. treated pipe - Control (biofilm; day 13): 17.2 | HW Diff. treated pipe - Control (biofilm; day 14): 15.0 | HW Diff. treated pipe - Control (biofilm; day 15): 11.9 | HW Diff. treated pipe - Control (biofilm; day 16): 9.1 | HW Diff. treated pipe - Control (biofilm; day 17): 7.3 | HW Diff. treated pipe - Control (biofilm; day 18): 7.2 | HW Difference, Fuzzicide BAC - Control (biofilm; day 26 of trial, between days 7 and 26 the biocide was improperly prepared, rendering it ineffective): 6.11 | HW Difference, Fuzzicide BAC - Control (biofilm; day 27 of trial (treatment day), 10 ppm as total chlorine for 3 h three times a week): 6.67 | HW Difference, Fuzzicide BAC - Control (biofilm; day 28 of trial, 10 ppm as total chlorine for 3 h three times a week): 7.13 | HW Difference, Fuzzicide BAC - Control (biofilm; day 29 of trial (treatment day), 10 ppm as total chlorine for 3 h three times a week): 8.75 | HW Difference, Fuzzicide BAC - Control (biofilm; day 30 of trial, 10 ppm as total chlorine for 3 h three times a week): 8.93 | HW Difference, Fuzzicide BAC - Control (biofilm; day 31 of trial, 10 ppm as total chlorine for 3 h three times a week): 8.93 | HW Difference, Fuzzicide BAC - Control (biofilm; day 32 of trial, 10 ppm as total chlorine for 3 h three times a week): 9.02 | HW Difference, Fuzzicide BAC - Control (biofilm; day 33 of trial (treatment day), 10 ppm as total chlorine for 3 h three times a week): 8.89 | HW Difference, Fuzzicide BAC - Control (biofilm; day 34 of trial, 10 ppm as total chlorine for 3 h three times a week): 8.93 | HW Difference, Fuzzicide BAC - Control (biofilm; day 35 of trial, 10 ppm as total chlorine for 3 h three times a week): 9.12 | HW Difference, Fuzzicide BAC - Control (biofilm; day 36 of trial (treatment day), 10 ppm as total chlorine for 3 h three times a week): 10.31 | HW Difference, Fuzzicide BAC - Control (biofilm; day 37 of trial, 10 ppm as total chlorine for 3 h three times a week): 9.96 | HW Difference, Fuzzicide BAC - Control (biofilm; day 38 of trial, 10 ppm as total chlorine for 3 h three times a week): 13.97 | state of coupons ([2]; after 2 days): remained clean | state of coupons ([2]; after 4 days): remained clean | control of planktonic microorganisms ([2]; medium sample after four days, within detection limits): complete control of planktonic microorganisms | Viable Counts After 2 Days, medium ([2]; planktonic cells in circulating medium, day 2, daily slug dose (Mixed Halogens 5 ppm, Fuzzicide BAC […] expressed as Cl2), 35° C.): 1 × 10^6 cfu/ml | Viable Counts After 4 Days, medium ([2]; planktonic cells in circulating medium, day 4, daily slug dose (Mixed Halogens 5 ppm, Fuzzicide BAC […] expressed as Cl2)): <100* cfu/ml | Viable Counts After 2 Days, coupon surfaces ([2]; stainless steel coupons, day 2, daily slug dose (Mixed Halogens 5 ppm, Fuzzicide BAC […] expressed as Cl2)): <27* cfu/cm^2 | Viable Counts After 4 Days, coupon surfaces ([2]; stainless steel coupons, day 4, daily slug dose (Mixed Halogens 5 ppm, Fuzzicide BAC […] expressed as Cl2)): <27* Cfu/cm^2
